# Test results published in US11547681B2, “N-acylethanolamide derivatives and uses thereof” (ELIEM THERAPEUTICS, INC., priority 2016, dated 2023).
# Assay: Liver S9 stability, human
# In short: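 Incubations ran at 37° C in S9 with 1 μM test article, started by cofactor cocktail, sampled at 0, 10, 20, 30, 60 min and stopped with cold acidified acetonitrile.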
smiles,measurement,setting,value
"C[C@]12CC[C@H]3[C@@H](CCC4=CC(=O)CC[C@@]43C)[C@@H]1CC[C@@H]2O [Testosterone, testosterone, reference compound]",Half-life,"Control Compound, Human liver S9",28 min
same,Half-life,"Control Compound, Mouse liver S9",9.0 min
same,CLint,"Control Compound, Rat liver S9",0.260 ml/min/mg protein
same,Half-life,Human liver S9,28 min
same,half-life,"male, Beagle, s9",25 min
same,Half-life,"male, CD-1, mouse, s9",17 min
same,half-life,"male, CD-1, mouse, s9",8.7 min
same,half-life,"male, Sprague-Dawley, rat, s9, Half-life, Control Compound, Rat liver S9",2.7 min
same,half-life at 1 μM,"male, Sprague-Dawley, rat, s9, Half-life, Rat liver S9",2.7 min
same,half-life,"male, Sprague-Dawley, rat, s9, Half-life, control compound, rat liver S9",2.7 min
